Read-outs that look alike come from different tables or passages of the source.
Key:
all iBMECs = experiment: Inhibition of substrate transport by transporter inhibitors, all iBMECs; format: cell-based, human
Procedure: (§1) The measurement of TEER, transport studies, and the derivation of permeability coefficients were carried out as reported. In each filter, a paracellular marker (radiolabelled sucrose or LY) was added as internal control of the tightness of the monolayer. The amounts of radiotracer and fluorescent tracers were determined by liquid scintillation (Top Count-NXT, Microplate Scintillation and Luminescence counter from Perkin Elmer, Milan, Italy) and fluorescence spectrophotometry (SAFIRE TECAN, Microplate Fluorescence reader, Männedorf, Switzerland), respectively. In efflux and influx transport assays, before the addition of the compounds, filters were pre-incubated for 15 min at 37 °C with or without inhibitors and/or substrates: 2 µM elacridar (PGP inhibition), 2 µM of KO143 (BCRP inhibition), 10 µM JPH203 (LAT-1 inhibition), and 200 µM of phloretin (GLUT inhibition). Each test compound was assayed in triplicates. Transferrin from Human Serum, Alexa Fluor™ 594 Conjugate (T13343 Invitrogen™ from Thermo Fisher, Monza, Italy) was incubated (2.5 µM) in HBSS-20 mM Hepes pH 7.4 containing 1% BSA for 2 h, at 37 °C, and 5% CO2 and on ice at 4 °C. At the end of the incubation, aliquots from both compartments were collected and the fluorescent tracer was quantified.

[1] = Table S4; cited from earlier work
[2] = Transport assay (permeability) across iBMEC_109Q transwell BBB model; conditions: female, human
[3] = Transport assay (permeability) across iBMEC_71Q transwell BBB model; conditions: female, human
[4] = Transport assay (permeability) across iBMEC_33Q transwell BBB model; conditions: female, human
GLUT = experiment: in vitro; conditions: female, human
iBMEC_109Q [5] = experiment: Transport assay (permeability) across iBMEC_109Q transwell BBB model; conditions: for Permeability iBMEC_109Q: Table 1, compound alone, mean ± SE, n > 6, compounds marked ^a calculated from Ptotal
iBMEC_71Q [6] = experiment: Transport assay (permeability) across iBMEC_71Q transwell BBB model; conditions: for Permeability iBMEC_71Q: Table 1, compound alone, mean ± SE, n > 6, compounds marked ^a calculated from Ptotal
iBMEC_33Q [7] = experiment: Transport assay (permeability) across iBMEC_33Q transwell BBB model; conditions: for Permeability iBMEC_33Q: Table 1, compound alone, mean ± SE, n > 6, compounds marked ^a calculated from Ptotal
iBMEC_109Q [8] = test system: iBMEC_109Q
iBMEC_71Q [9] = test system: iBMEC_71Q
iBMEC_33Q [10] = test system: iBMEC_33Q
iBMEC_33Q [11] = experiment: TNFα treatment, inflammatory gene expression (qRT-PCR), iBMEC_33Q; format: cell-based, human; conditions: 50 ng/mL TNFα, 48 h, versus untreated cells
Procedure: (§2) To evaluate the self-renewal capacity and the pluripotency as well as the trilineage differentiation potential, mRNA was subjected to the hPSC scorecard assay (Cat. A15872, Thermo Fisher, Monza, Italy) after RNA extraction from iPSC colonies with RNeasy mini kit (Cat. 74106, Qiagen, Hilden, Germany). cDNA was obtained with High-capacity cDNA reverse transcription kit (Cat. 4374966, Thermo Fisher, Monza, Italy). The expression of inflammatory genes after TNFα treatment was evaluated using the TaqMan™ Array Human Inflammation Panel (Cat. 4378722, Applied Biosystem, Foster City, CA, USA). qRT-PCR was performed in QuantStudio 12 K Flex (Thermo Fisher, Monza, Italy). The analysis of the hPSC score was conducted with the hPSC Score Card Panel software.
(§3) To mimic a neuroinflammatory condition, cells in transwells were treated with 50 ng/mL of TNFα for 48 h before RNA extraction.

iBMEC_109Q [12] = experiment: TNFα treatment, inflammatory gene expression (qRT-PCR), iBMEC_109Q; format: cell-based, human; conditions: 50 ng/mL TNFα, 48 h, versus untreated cells
Procedure: as §2, §3

iBMEC_71Q [13] = experiment: TNFα treatment, inflammatory gene expression (qRT-PCR), iBMEC_71Q; format: cell-based, human; conditions: 50 ng/mL TNFα, 48 h, versus untreated cells
Procedure: as §2, §3

iBMECs 71Q = experiment: Receptor-mediated transcytosis of fluorescent transferrin, iBMEC 71Q; format: in vitro ADME, human; conditions: for Transferrin transported: 71Q, basal compartment after 2 h, 2.5 µM, mean ± sd
Procedure: as §1

iBMECs 109Q = experiment: Receptor-mediated transcytosis of fluorescent transferrin, iBMEC 109Q; format: in vitro ADME, human; conditions: for Transferrin transported: 109Q, basal compartment after 2 h, 2.5 µM, mean ± sd
Procedure: as §1

iBMECs 33Q = experiment: Receptor-mediated transcytosis of fluorescent transferrin, iBMEC 33Q; format: in vitro ADME, human; conditions: basal compartment after 2 h, 2.5 µM, mean ± sd
Procedure: as §1

[14] = test system: rat cerebral microcirculation; conditions: cited from earlier work

Nc1cc(COc2c(Cl)cc(C[C@H](N)C(=O)O)cc2Cl)c2oc(-c3ccccc3)nc2c1 [JPH203]
Reduction of leucine transport (all iBMECs; 10 µM JPH203, all models): about 80%

O=C(O)c1cc(=O)c2ccccc2[nH]1 [KYNA, kynurenic acid]
Human Kp,uu,CSF [1]: 0.024

N[C@@H](Cc1ccc(O)c(O)c1)C(=O)O [L-DOPA]
Human Kp,uu,CSF [1]: 0.49

N=C(N)NCCC[C@H](N)C(=O)O [arginine]
Human Kp,uu,CSF [1]: 0.28

CC(NC(C)(C)C)C(=O)c1cccc(Cl)c1 (stereo not drawn) [bupropion]
Human Kp,uu,CSF [1]: 1.11

Cn1c(=O)c2c(ncn2C)n(C)c1=O [caffeine]
Human Kp,uu,CSF [1]: 1.00

NC(=O)N1c2ccccc2C=Cc2ccccc21 [carbamazepine]
Human Kp,uu,CSF [1]: 0.24

CN(C)CCCC1(c2ccc(F)cc2)OCc2cc(C#N)ccc21 (stereo not drawn) [citalopram]
Human Kp,uu,CSF [1]: 1.77

O=C1OC2(c3ccc(O)cc3Oc3cc(O)ccc32)c2ccccc21 [fluorescein]
Papp [2]: 0.8 ± 0.01 ×10⁻⁶ cm/s
Papp [3]: 0.24 ± 0.02 ×10⁻⁶ cm/s
Papp [4]: 0.11 ± 0.01 ×10⁻⁶ cm/s

OC[C@H]1OC(O)[C@H](O)[C@@H](O)[C@@H]1O (stereo partly drawn) [glucose]
Papp A→B (GLUT): 6.3 ×10⁻⁶ cm/s
Human Kp,uu,CSF [1]: 0.65

N[C@@H](CCC(=O)O)C(=O)O [glutamate]
Efflux Ratio (iBMEC_109Q [5]; 109Q, no inhibitor): 1.3
Permeability A-B (iBMEC_109Q [5]; 109Q, no inhibitor, mean ± SD): 7.2 ± 0.7 ×10^−6 cm/s
Permeability B-A (iBMEC_109Q [5]; 109Q, no inhibitor, mean ± SD): 9.0 ± 0.5 ×10^−6 cm/s
Permeability iBMEC_109Q (iBMEC_109Q [5]): 7.2 ± 0.7 ×10^−6 cm/s
Efflux Ratio (iBMEC_71Q [6]; 71Q, no inhibitor): 2.0
Permeability A-B (iBMEC_71Q [6]; 71Q, no inhibitor, mean ± SD): 3.3 ± 0.1 ×10^−6 cm/s
Permeability B-A (iBMEC_71Q [6]; 71Q, no inhibitor, mean ± SD): 6.8 ± 0.6 ×10^−6 cm/s
Permeability iBMEC_71Q (iBMEC_71Q [6]): 3.3 ± 0.1 ×10^−6 cm/s
Efflux Ratio (iBMEC_33Q [7]; 33Q, no inhibitor): 1.8
Permeability A-B (iBMEC_33Q [7]; 33Q, no inhibitor, mean ± SD): 4.1 ± 0.2 ×10^−6 cm/s
Permeability B-A (iBMEC_33Q [7]; 33Q, no inhibitor, mean ± SD): 7.5 ± 0.5 ×10^−6 cm/s
Permeability iBMEC_33Q (iBMEC_33Q [7]): 4.1 ± 0.2 ×10^−6 cm/s

CC(O)C(=O)O (stereo not drawn) [lactate]
Permeability iBMEC_109Q (iBMEC_109Q [8]): 52.6 ± 5.7 ×10^−6 cm/s
Permeability iBMEC_71Q (iBMEC_71Q [9]): 53.2 ± 3.6 ×10^−6 cm/s
Permeability iBMEC_33Q (iBMEC_33Q [10]): 53.8 ± 6.7 ×10^−6 cm/s

CC(C)C[C@H](N)C(=O)O [leucine]
Human Kp,uu,CSF [1]: 0.12

CN(Cc1cnc2nc(N)nc(N)c2n1)c1ccc(C(=O)N[C@@H](CCC(=O)O)C(=O)O)cc1 [methotrexate]
Human Kp,uu,CSF [1]: 0.02

N[C@@H](Cc1ccccc1)C(=O)O [phenylalanine]
Papp [2]: 30.4 ± 3 ×10⁻⁶ cm/s
Papp [3]: 21.4 ± 1.4 ×10⁻⁶ cm/s
Papp [4]: 25.8 ± 1.5 ×10⁻⁶ cm/s
Human Kp,uu,CSF [1]: 0.28

O=C1NC(=O)C(c2ccccc2)(c2ccccc2)N1 [phenytoin]
Papp [2]: 27.7 ± 1.5 ×10⁻⁶ cm/s
Papp [3]: 20.9 ± 1 ×10⁻⁶ cm/s
Papp [4]: 18.6 ± 0.2 ×10⁻⁶ cm/s
Human Kp,uu,CSF [1]: 0.19

O=C(CCc1ccc(O)cc1)c1c(O)cc(O)cc1O [phloretin]
inhibition at 200 µM (all iBMECs; Homo sapiens, 200 µM phloretin, both directions (apical to basal and basal to apical), all iBMECs, read-out: Inhibition of glucose transport): 50 to 60%

TNFα
Upregulation of ICAM-1 expression after TNFα treatment (iBMEC_33Q [11]; 33Q): 9 fold
Upregulation of VCAM1 expression after TNFα treatment (iBMEC_33Q [11]; iBMEC 33Q): more than 40 fold
Upregulation of ICAM-1 expression after TNFα treatment (iBMEC_109Q [12]; 109Q): about 2 fold
Upregulation of VCAM1 expression after TNFα treatment (iBMEC_109Q [12]; iBMEC_109Q): none
Upregulation of ICAM-1 expression after TNFα treatment (iBMEC_71Q [13]; 71Q): about 2 fold
Upregulation of VCAM1 expression after TNFα treatment (iBMEC_71Q [13]; iBMEC 71Q): more than 40 fold

Transferrin: Transferrin from Human Serum, Alexa Fluor 594 Conjugate
Transferrin transported (iBMECs 71Q; 4°C): 3.7 ± 0.3 ng
Transferrin transported (iBMECs 71Q; 37°C): 7.3 ± 0.4 ng
Higher level of basal accumulation of transferrin (iBMECs 71Q; iBMEC_71Q versus healthy model): ~2 fold
Transferrin transported (iBMECs 109Q; 4°C): 4.0 ± 1.0 ng
Transferrin transported (iBMECs 109Q; 37°C): 49.0 ± 13.0 ng
Higher level of basal accumulation of transferrin (iBMECs 109Q; iBMEC_109Q versus healthy model): about 5 fold
Transferrin transported (iBMECs 33Q; 4°C): 2.8 ± 0.4 ng
Transferrin transported (iBMECs 33Q; 37°C): 4.1 ± 0.7 ng

[D-Ala2]deltorphin-II
Permeability iBMEC_109Q (iBMEC_109Q [5]): 1.01 ± 0.02 ×10^−6 cm/s
Permeability iBMEC_71Q (iBMEC_71Q [6]): 0.92 ± 0.01 ×10^−6 cm/s
Permeability iBMEC_33Q (iBMEC_33Q [7]): 0.77 ± 0.08 ×10^−6 cm/s

lucifer yellow
Efflux Ratio (iBMEC_109Q [8]): 1.0
LY permeability, time course (iBMEC_109Q [8]): exceeded 5 × 10^−7 cm/s
Permeability A-B (iBMEC_109Q [8]): 0.70 ± 0.03 ×10^−6 cm/s
Permeability B-A (iBMEC_109Q [8]): 0.70 ± 0.1 ×10^−6 cm/s
Permeability iBMEC_109Q, paracellular markers (iBMEC_109Q [8]): 7.0 ± 0.3 x10^-7 cm/s
Efflux Ratio (iBMEC_71Q [9]): 0.9
LY permeability, time course (iBMEC_71Q [9]): ≥ 0.5 ×10⁻⁶ cm/s
Permeability A-B (iBMEC_71Q [9]): 0.37 ± 0.03 ×10^−6 cm/s
Permeability B-A (iBMEC_71Q [9]): 0.34 ± 0.06 ×10^−6 cm/s
Permeability iBMEC_71Q, paracellular markers (iBMEC_71Q [9]): 3.7 ± 0.3 x10^-7 cm/s
Efflux Ratio (iBMEC_33Q [10]): 0.9
LY permeability, time course (iBMEC_33Q [10]): ≥ 0.5 ×10⁻⁶ cm/s
Permeability A-B (iBMEC_33Q [10]): 0.23 ± 0.02 ×10^−6 cm/s
Permeability B-A (iBMEC_33Q [10]): 0.21 ± 0.04 ×10^−6 cm/s
Permeability iBMEC_33Q, paracellular markers (iBMEC_33Q [10]): 2.3 ± 0.2 x10^-7 cm/s
Permeability P in vivo [14]: 1 − 2 × 10^−7 cm/s

— paper PMC9321930, “Modelling the Human Blood–Brain Barrier in Huntington Disease” (International Journal of Molecular Sciences, 2022)
